Literature values as cited in patent US20170128401A1, “DIETARY COMPOSITION FOR IMPROVED PERFORMANCE” (priority 2015, published 2017).

What was measured:
healthy adults [1] = conditions: in vivo
healthy adults [2] = conditions: in vivo; remark: listed apart in the source
subjects = conditions: 400 mg of phosphatidylserine
[3] = 750 mg dose; 85% VO2 max

O=C(O[C@@H]1Cc2c(O)cc(O)cc2O[C@@H]1c1cc(O)c(O)c(O)c1)c1cc(O)c(O)c(O)c1 [EGCG, epigallocatechin gallate]
VO2max (healthy adults [1]): increased
carbohydrate absorption (healthy adults [2]): significantly decreased

phosphatidylserine
decrease in wrong answers (test accuracy) (subjects): 39%
increase in correct answers (test accuracy) (subjects): 13%
increase speed of calculations (subjects): 20%
increase time to exhaustion in anaerobic events [3]: 29%+/−8
